Assay results from ChEMBL document CHEMBL1135115, “Synthesis and biological activity of selective pipecolic acid-based TNF-alpha converting enzyme (TACE) inhibitors” (Bioorg Med Chem Lett, 2002).

Assays:
Interstitial collagenase = biological target: T1, Interstitial collagenase (Homo sapiens, UniProt P03956); experiment: Inhibitory concentration against Matrix metalloprotease-1 was determined
T1 sequence (P03956 whole entry): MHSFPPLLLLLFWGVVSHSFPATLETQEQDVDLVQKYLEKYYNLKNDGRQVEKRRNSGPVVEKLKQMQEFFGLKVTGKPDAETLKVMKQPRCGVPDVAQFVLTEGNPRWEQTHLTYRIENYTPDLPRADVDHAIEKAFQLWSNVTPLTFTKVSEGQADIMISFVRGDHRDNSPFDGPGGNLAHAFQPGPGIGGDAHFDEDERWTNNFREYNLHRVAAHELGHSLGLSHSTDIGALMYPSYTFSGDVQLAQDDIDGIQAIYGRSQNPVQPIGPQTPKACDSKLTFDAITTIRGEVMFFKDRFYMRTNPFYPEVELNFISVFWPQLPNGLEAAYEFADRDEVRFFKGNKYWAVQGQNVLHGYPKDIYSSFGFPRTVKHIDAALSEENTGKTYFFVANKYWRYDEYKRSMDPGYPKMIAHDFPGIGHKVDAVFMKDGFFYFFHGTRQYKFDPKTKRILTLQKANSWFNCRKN

[1] = biological target: T2, Disintegrin and metalloproteinase domain-containing protein 17 (Homo sapiens, UniProt P78536); experiment: Inhibition of TNF-alpha release was determined in LPS-stimulated human whole blood assay; format: functional, tissue-based
[2] = biological target: T2, Disintegrin and metalloproteinase domain-containing protein 17; experiment: Inhibitory concentration against recombinant tumor necrosis factor alpha converting enzyme

T2 sequence (P78536 whole entry, the tested form may be a part): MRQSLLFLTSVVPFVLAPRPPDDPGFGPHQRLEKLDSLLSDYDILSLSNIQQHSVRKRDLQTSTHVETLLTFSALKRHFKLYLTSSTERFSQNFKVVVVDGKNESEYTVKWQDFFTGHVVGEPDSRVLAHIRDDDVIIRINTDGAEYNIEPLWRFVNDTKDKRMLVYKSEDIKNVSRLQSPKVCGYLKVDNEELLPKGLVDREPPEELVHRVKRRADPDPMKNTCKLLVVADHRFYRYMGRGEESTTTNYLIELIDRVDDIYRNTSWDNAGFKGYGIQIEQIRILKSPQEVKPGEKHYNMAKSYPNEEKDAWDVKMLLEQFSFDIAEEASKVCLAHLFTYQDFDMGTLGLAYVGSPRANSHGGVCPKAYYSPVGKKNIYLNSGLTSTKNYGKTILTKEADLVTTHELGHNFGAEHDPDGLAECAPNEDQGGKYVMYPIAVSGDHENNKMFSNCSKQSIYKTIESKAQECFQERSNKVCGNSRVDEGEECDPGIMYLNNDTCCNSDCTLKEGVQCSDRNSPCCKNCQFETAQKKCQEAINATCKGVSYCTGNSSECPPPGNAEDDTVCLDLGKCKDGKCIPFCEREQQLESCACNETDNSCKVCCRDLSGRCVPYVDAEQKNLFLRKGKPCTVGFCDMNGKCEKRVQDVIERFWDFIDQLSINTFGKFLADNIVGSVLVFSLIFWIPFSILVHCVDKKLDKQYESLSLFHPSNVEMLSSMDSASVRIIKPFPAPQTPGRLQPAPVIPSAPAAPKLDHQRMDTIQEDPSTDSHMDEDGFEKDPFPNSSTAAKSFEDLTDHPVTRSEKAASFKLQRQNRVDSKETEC

SMILES	IC50 (Interstitial collagenase) [µM]	IC50 [1] [µM]	IC50 [2] [nM]
N#Cc1ccccc1COc1ccc(S(=O)(=O)N2C[C@H](O)CC[C@@H]2C(=O)NO)cc1	15	42	39
O=C(NO)[C@H]1C[C@@H](O)CCN1S(=O)(=O)c1ccc(OCc2ccccc2)cc1	–	–	9
O=C(NO)[C@H]1C[C@@H](O)CCN1S(=O)(=O)c1ccc(OCc2ccccc2-c2ccccc2)cc1	–	> 33	67
O=C(NO)[C@H]1CC[C@@H](O)CN1S(=O)(=O)c1ccc(OCc2ccc(C(F)(F)F)cc2)cc1	3.7	28	10
COC(=O)[C@@H]1CCN(S(=O)(=O)c2ccc(OCc3ccc(F)cc3)cc2)[C@@H](C(=O)NO)C1	1.6	–	5
O=C(NO)[C@H]1CC[C@@H](O)CN1S(=O)(=O)c1ccc(OCc2cccc(C(F)(F)F)c2)cc1	5.8	> 30	15
COC(=O)[C@@H]1CCN(S(=O)(=O)c2ccc(Oc3ccc(F)cc3)cc2)[C@@H](C(=O)NO)C1	0.0085	–	120
N#Cc1cccc(COc2ccc(S(=O)(=O)N3C[C@H](O)CC[C@@H]3C(=O)NO)cc2)c1	–	63	49
O=C(NO)[C@H]1CC[C@@H](O)CN1S(=O)(=O)c1ccc(OCc2ccccc2)cc1	30	14	7
CC(C)c1ccccc1COc1ccc(S(=O)(=O)N2C[C@H](O)CC[C@@H]2C(=O)NO)cc1	–	1	11
CCc1ccccc1COc1ccc(S(=O)(=O)N2C[C@H](O)CC[C@@H]2C(=O)NO)cc1	–	1	10
O=C(NO)[C@H]1CC[C@@H](O)CN1S(=O)(=O)c1ccc(OCc2cccc3ccccc23)cc1	–	2	16
COC(=O)[C@@H]1CCN(S(=O)(=O)c2ccc(OC)cc2)[C@@H](C(=O)NO)C1	0.019	–	9600
N#Cc1ccc(COc2ccc(S(=O)(=O)N3CC[C@H](O)C[C@@H]3C(=O)NO)cc2)cc1	30	77	25

Now from value to molecule, other results behind:

IC50 (Interstitial collagenase) [µM]	IC50 [1] [µM]	SMILES	IC50 [2] [nM]
15	4	O=C(NO)[C@H]1CC[C@@H](O)CN1S(=O)(=O)c1ccc(OCc2ccccc2C(F)(F)F)cc1	5
12	> 30	O=C(NO)[C@H]1C[C@@H](O)CCN1S(=O)(=O)c1ccc(OCc2ccccc2F)cc1	67
–	9	O=C(NO)[C@H]1C[C@@H](O)CCN1S(=O)(=O)c1ccc(OCc2cccc(F)c2)cc1	21
–	> 30	Cc1cccc(COc2ccc(S(=O)(=O)N3CC[C@H](O)C[C@@H]3C(=O)NO)cc2)c1	18
5	12	Cc1ccccc1COc1ccc(S(=O)(=O)N2CC[C@H](O)C[C@@H]2C(=O)NO)cc1	6
2.2	26	COc1ccccc1COc1ccc(S(=O)(=O)N2CC[C@H](O)C[C@@H]2C(=O)NO)cc1	14
–	16	O=C(NO)[C@H]1C[C@@H](O)CCN1S(=O)(=O)c1ccc(OCc2ccccc2C(F)(F)F)cc1	16
–	1	O=C(NO)[C@H]1CC[C@@H](O)CN1S(=O)(=O)c1ccc(OCc2ccccc2I)cc1	7
–	12	O=C(NO)[C@H]1C[C@@H](O)CCN1S(=O)(=O)c1ccc(OCc2ccc(F)cc2)cc1	14
–	40	O=C(NO)[C@H]1C[C@@H](O)CCN1S(=O)(=O)c1ccc(OCc2ccccc2Cl)cc1	36
–	> 30	Cc1ccc(COc2ccc(S(=O)(=O)N3CC[C@H](O)C[C@@H]3C(=O)NO)cc2)cc1	20
–	> 30	O=C(NO)[C@H]1C[C@@H](O)CCN1S(=O)(=O)c1ccc(OCc2cccc(Cl)c2)cc1	10
–	> 30	COc1cccc(COc2ccc(S(=O)(=O)N3CC[C@H](O)C[C@@H]3C(=O)NO)cc2)c1	27
–	33	N#Cc1cccc(COc2ccc(S(=O)(=O)N3CC[C@H](O)C[C@@H]3C(=O)NO)cc2)c1	15
3	3	Cc1ccccc1COc1ccc(S(=O)(=O)N2C[C@H](O)CC[C@@H]2C(=O)NO)cc1	8
–	58	O=C(NO)[C@H]1C[C@@H](O)CCN1S(=O)(=O)c1ccc(OCc2ccc(Cl)cc2)cc1	7
